Drawing on ChEMBL document CHEMBL1131462, “Quantitative analysis of the structural requirements for blockade of the N-methyl-D-aspartate receptor at the phencyclidine binding site” (J Med Chem, 1998), this text covers Ki for 23 molecules.

pKi: −log10 of the molar value.

The target of the test is Glutamate [NMDA] receptor. Kind of test: The compound was tested for its ability to block PCP N-methyl-D-aspartate glutamate receptor at the PCP (phencyclidine) binding site in postmortem human frontal cortex.
Consider `NCCCC12CC3CC(CC(C3)C1)C2`, for which the pKi is 5.02.

Take `CN(C)C12CC3CC(C)(CC(C)(C3)C1)C2`: the negative-log Ki (pKi) was 5.35. This pKi lies 0.33 log units higher than the previous one.

In turn, `CC12CC3CC(C)(C1)CC(CCN)(C3)C2` gave a negative logarithm of the Ki (pKi) of 6.10.

Take `CCC12CC3CC(N)(C1)CC(c1ccccc1)(C3)C2` (stereo not drawn): the negative logarithm of the Ki (pKi) is 5.39.

Turning to `CN(C)C12CC3CC(CC(C3)C1)C2`, the pKi is 4.68.

Turning to `CCNC12CC3CC(C)(CC(C)(C3)C1)C2`, the pKi was 5.76.

With `CCC12CC3CC(CC(N)(C3)C1)C2`, the pKi was 6.22. This pKi is 0.46 log units higher than that of the molecule before.

Regarding `CC(C)C12CC3CC(CC(N)(C3)C1)C2`, the pKi was 5.14.

Regarding `NCC12CC3CC(CC(C3)C1)C2`, the pKi was 4.48.

`CNC12CC3CC(C)(CC(C)(C3)C1)C2` had a negative-log Ki (pKi) of 5.79.

With `NC12CC3CC(C1)CC(c1ccccc1)(C3)C2`, the negative-log Ki (pKi) is 4.82.

In turn, `NCCC12CC3CC(CC(C3)C1)C2` had a pKi of 5.42.

`CCC12CC3CC(N)(C1)CC(CC)(C3)C2` showed a pKi of 6.72.

`NCCCCC12CC3CC(CC(C3)C1)C2` had a negative logarithm of the Ki (pKi) of 4.76.

The molecule `CNC12CC3CC(CC(C3)C1)C2` showed a negative-log Ki (pKi) of 4.66.

With `CNC1(c2ccccc2Cl)CCCCC1=O` (racemic) [KETAMINE], the pKi was 6.38.

As for `OC(CCN1CCCC1)(c1ccccc1)C1CCCCC1` (racemic) [PROCYCLIDINE], the pKi was 5.77.

On to `NC12CC3CC(CC(C3)C1)C2` [AMANTADINE], for which the pKi was 4.98.

`CC(C)(C)N1CCC(c2ccccc2)(c2ccccc2)CC1` [BUDIPINE] showed a pKi of 4.93.

`COc1ccc2c(c1)[C@]13CCCC[C@@H]1[C@H](C2)N(C)CC3` [DEXTROMETHORPHAN]: the negative logarithm of the Ki (pKi) was 5.77.

Regarding `CN1CC[C@@]23CCCC[C@@H]2[C@@H]1Cc1ccc(O)cc13` [DEXTRORPHAN], the pKi was 6.66.

As for `Cc1ccccc1C(OCCN(C)C)c1ccccc1` (stereo not drawn) [ORPHENADRINE], the negative logarithm of the Ki (pKi) is 5.22. Compared with the last molecule, the pKi is 1.44 log units lower.

Turning to `c1ccc(C2(N3CCCCC3)CCCCC2)cc1` [PHENCYCLIDINE], the negative-log Ki (pKi) is 7.64.
